In one assay the target is T1, c-kit (Homo sapiens, UniProt P10721).
T1 construct: MO7e (human megakaryocytic leukemia cell line) which had been arrested for 20 hr; endogenous in cells; host or cells: MO7e human megakaryocytic leukemia cell line
The assay can be described thus: Inhibitory activity against c-kit autophosphorylation (MO7e cells, h-SCF). In kind it is cell-based. To be noted: for IC50: MO7e cells, 50 ng/ml h-SCF, read-out: c-kit IC50; for inhibition at 1 µM: Mo7e, figure within parentheses in −( ) or >1000( ), at 1000 nM. The method, boiled down: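 First, human megakaryocytic leukemia MO7e cells arrested 20 hr receive compound for one hour. Second, SCF stimulation (50 ng/ml) runs 5 min, after which cells are solubilized. Third, tyrosine-phosphorylated c-kit in the lysate is quantified by sandwich ELISA with absorbance at 450 nm.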

For another assay, the target named is T2, PDGF-Ra (Homo sapiens, UniProt P16234).
T2 construct: host or cells: G-292 human osteosarcoma cells
T2 sequence (P16234 24-1089): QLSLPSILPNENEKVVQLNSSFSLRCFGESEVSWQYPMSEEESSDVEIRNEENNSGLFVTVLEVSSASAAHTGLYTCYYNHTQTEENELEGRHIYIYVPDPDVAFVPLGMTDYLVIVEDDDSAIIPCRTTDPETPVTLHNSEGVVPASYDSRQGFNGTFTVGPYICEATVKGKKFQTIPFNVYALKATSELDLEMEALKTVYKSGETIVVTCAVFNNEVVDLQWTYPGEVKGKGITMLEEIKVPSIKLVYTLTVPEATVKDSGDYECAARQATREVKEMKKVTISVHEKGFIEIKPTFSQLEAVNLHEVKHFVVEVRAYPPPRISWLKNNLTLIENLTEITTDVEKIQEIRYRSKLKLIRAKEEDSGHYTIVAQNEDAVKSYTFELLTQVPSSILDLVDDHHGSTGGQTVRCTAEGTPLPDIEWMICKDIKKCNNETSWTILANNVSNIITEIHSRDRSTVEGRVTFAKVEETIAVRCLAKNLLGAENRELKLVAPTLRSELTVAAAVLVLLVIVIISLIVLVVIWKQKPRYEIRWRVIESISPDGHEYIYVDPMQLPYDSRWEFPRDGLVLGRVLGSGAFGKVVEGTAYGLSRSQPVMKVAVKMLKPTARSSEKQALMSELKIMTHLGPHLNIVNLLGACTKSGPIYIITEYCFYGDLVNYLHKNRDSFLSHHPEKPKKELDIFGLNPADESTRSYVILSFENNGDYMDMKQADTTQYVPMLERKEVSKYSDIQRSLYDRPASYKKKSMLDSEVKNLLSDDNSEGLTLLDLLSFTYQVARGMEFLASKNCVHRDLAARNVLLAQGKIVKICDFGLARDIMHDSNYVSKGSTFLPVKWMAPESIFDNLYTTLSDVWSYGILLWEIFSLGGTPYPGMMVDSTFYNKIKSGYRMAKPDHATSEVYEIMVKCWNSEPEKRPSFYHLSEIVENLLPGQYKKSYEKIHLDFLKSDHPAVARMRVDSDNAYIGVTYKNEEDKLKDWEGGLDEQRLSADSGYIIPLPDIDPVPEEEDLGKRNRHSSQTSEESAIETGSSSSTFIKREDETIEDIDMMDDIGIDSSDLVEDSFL
The assay is described as follows: Inhibitory activity against PDGF-Ra phosphorylation by PDGF-AA stimulation using G292. In kind it is cell-based. Conditions: for IC50: > means inhibition at indicated concentration not more than 50%, < and << not less than 50%, read-out: PDGF (E) IC50; for inhibition at 0.1 µM: G292, figure within parentheses in >100( ), at 100 nM, read-out: PDGF (E) inhibition (%) at 100 nM. A digest of the protocol:
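Cells seeded in low-serum medium are exposed to test compound for one hour, then PDGF-AA (50 ng/ml) triggers receptor phosphorylation for 5 min at 37 °C. Phospho-PDGF-Ra in solubilized cells is quantified by anti-phosphotyrosine capture ELISA at 450 nm.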

Results on 30 compounds are retold here after US7135466B2 (Kirin Beer Kabushiki Kaisha, priority 1999, dated 2006).

Broadly, the IC50 is the concentration at which inhibition is half-maximal. One may read the inhibition as how much of the control response was suppressed.

Bounds are passed on as bounds.

T1 sequence (P10721 26-976): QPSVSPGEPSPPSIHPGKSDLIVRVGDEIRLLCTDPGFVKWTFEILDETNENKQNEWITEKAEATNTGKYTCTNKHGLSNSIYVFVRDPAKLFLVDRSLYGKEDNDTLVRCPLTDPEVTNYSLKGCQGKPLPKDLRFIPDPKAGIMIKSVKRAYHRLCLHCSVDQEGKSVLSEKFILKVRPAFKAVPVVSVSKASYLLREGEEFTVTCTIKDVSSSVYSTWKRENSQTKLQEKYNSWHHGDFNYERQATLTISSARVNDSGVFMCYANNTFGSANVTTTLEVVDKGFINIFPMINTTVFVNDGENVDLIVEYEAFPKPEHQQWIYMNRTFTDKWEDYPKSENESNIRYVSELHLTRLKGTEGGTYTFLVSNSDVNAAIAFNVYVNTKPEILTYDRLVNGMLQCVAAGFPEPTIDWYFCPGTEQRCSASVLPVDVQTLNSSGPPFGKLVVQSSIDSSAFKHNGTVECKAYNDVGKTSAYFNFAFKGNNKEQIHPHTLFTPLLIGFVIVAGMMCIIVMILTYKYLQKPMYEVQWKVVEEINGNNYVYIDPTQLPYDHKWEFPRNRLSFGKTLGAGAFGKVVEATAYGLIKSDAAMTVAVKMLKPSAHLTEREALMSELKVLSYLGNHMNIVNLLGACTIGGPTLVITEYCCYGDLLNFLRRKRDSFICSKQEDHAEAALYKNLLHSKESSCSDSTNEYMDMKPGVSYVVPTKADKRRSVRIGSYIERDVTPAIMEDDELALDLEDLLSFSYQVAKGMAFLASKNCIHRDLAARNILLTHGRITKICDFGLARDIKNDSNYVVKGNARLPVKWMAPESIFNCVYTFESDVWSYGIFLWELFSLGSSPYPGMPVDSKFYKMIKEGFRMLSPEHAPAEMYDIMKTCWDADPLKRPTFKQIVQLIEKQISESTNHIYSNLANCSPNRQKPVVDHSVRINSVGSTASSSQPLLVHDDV

Consider `COc1cc2ncnc(Oc3ccc(NC(=O)NC4CCN(CC5CCCCC5)C4)cc3)c2cc1OC` (centres unmarked) [Example 586, N-[1-(Cyclohexylmethyl)tetrahydro-1H-3-pyrrolyl]-N′-{4-[(6,7-dimethoxy-4-quinazolinyl)oxy]phenyl}urea], for which the 50% inhibitory concentration (IC50) on c-kit is 734 nM; on PDGF-Ra, 63 nM.

For `COc1cc2ncnc(Oc3ccc(NC(=O)NC4CCN(CC5CCCCC5)C4)c([N+](=O)[O-])c3)c2cc1OC` (centres unmarked) [Example 587, N-[1-(Cyclohexylmethyl)tetrahydro-1H-3-pyrrolyl]-N′-{4-[(6,7-dimethoxy-4-quinazolinyl)oxy]-2-nitrophenyl}urea], the inhibition at 1 µM at c-kit is 16%. Further, the concentration for half-maximal inhibition (IC50) on PDGF-Ra was found to be 67 nM.

As to `CCN(CC)CCNC(=S)Nc1ccc(Oc2ccnc3cc(OC)c(OC)cc23)cc1` [Example 589, N-{4-[(6,7-Dimethoxy-4-quinolyl)oxy]phenyl}-N′-(2-diethylaminoethyl)thiourea], the IC50 at c-kit was determined as 487 nM; at PDGF-Ra it was 28 nM.

As to `COc1cc2ncnc(Oc3ccc(NC(=O)NC4CCN(Cc5ccccc5)CC4)cc3)c2cc1OC` [Example 591, N-{4-[(6,7-Dimethoxy-4-quinazolinyl)oxy]phenyl}-N′-[4-(N-benzyl)piperidinyl]urea], the IC50 stood at 117 nM on c-kit and 33 nM at PDGF-Ra.

With `COc1cc2nccc(Oc3ccc(NC(=O)NN4CCCCC4)cc3)c2cc1OC` [Example 592, N-{4-[(6,7-Dimethoxy-4-quinolyl)oxy]phenyl}-N′-(1-piperidinyl)urea], the concentration for half-maximal inhibition (IC50) was 472 nM at c-kit and 23 nM on PDGF-Ra.

Take `COc1cc2nccc(Oc3ccc(NC(=O)NN4CCCCC4)c([N+](=O)[O-])c3)c2cc1OC` [Example 594, N-{4-[(6,7-Dimethoxy-4-quinolyl)oxy]-2-nitrophenyl}-N′-(1-piperidinyl)urea]: the inhibition at 1 µM at c-kit came to 10%. For the same compound, on PDGF-Ra, the IC50 is over 100 nM and the inhibition at 0.1 µM was found to be 39%.

On to `COc1cc(Oc2ncnc3cc(OC)c(OC)cc23)ccc1NC(=O)NN1CCCCC1` [Example 596, N-{4-[(6,7-Dimethoxy-4-quinazolinyl)oxy]-2-methoxyphenyl}-N′-(1-piperidinyl)urea], for which the IC50 on c-kit stood at 719 nM; at PDGF-Ra, 63 nM.

In the case of `COc1cc2ncnc(Oc3ccc(NC(=O)NN4CCCCC4)c([N+](=O)[O-])c3)c2cc1OC` [Example 597, N-{4-[(6,7-Dimethoxy-4-quinazolinyl)oxy]-2-nitrophenyl}-N′-(1-piperidinyl)urea], at c-kit, the inhibition at 1 µM is 8%. Moreover, on PDGF-Ra, the IC50 was over 100 nM and the inhibition at 0.1 µM was found to be 27%.

As for `COc1cc(Oc2ccnc3cc(OC)c(OC)cc23)ccc1NC(=O)NN1CCCCC1` [Example 598, N-{4-[(6,7-Dimethoxy-4-quinolyl)oxy]-2-methoxyphenyl}-N′-(1-piperidinyl)urea], the half-maximal inhibitory concentration (IC50) at c-kit worked out at 423 nM; on PDGF-Ra, 19 nM.

For the compound `COc1cc2ncnc(Oc3ccc(NC(=O)NN4CCCCCC4)cc3)c2cc1OC` [Example 602, N-{4-[(6,7-Dimethoxy-4-quinazolinyl)oxy]phenyl}-N′-(1-homopiperidinyl)urea], the IC50 was found to be 180 nM on c-kit and 11 nM at PDGF-Ra.

For the compound `COc1cc2ncnc(Oc3ccc(NC(=O)NN4CCCCC4)cc3)c2cc1OC` [Example 603, N-{4-[(6,7-Dimethoxy-4-quinazolinyl)oxy]phenyl}-N′-(1-piperidinyl)urea], the concentration for half-maximal inhibition (IC50) on c-kit was found to be 864 nM. In addition, on PDGF-Ra, the IC50 is over 100 nM and the inhibition at 0.1 µM is 42%.

For the compound `COc1cc2nccc(Oc3ccc(NC(=O)NC4CCN(Cc5ccccc5)C4)c(C)c3C)c2cc1OC` (centres unmarked) [Example 604, N-{4-[(6,7-Dimethoxy-4-quinolyl)oxy]-2,3-dimethylphenyl}-N′-[4-(N-benzyl)piperidinyl]urea], the IC50 at c-kit worked out at 322 nM; at PDGF-Ra, 73 nM.

Take `COc1cc2ncnc(Oc3ccc(NC(=O)NC4CCN(Cc5ccccc5)CC4)c([N+](=O)[O-])c3)c2cc1OC` [Example 606, N-{4-[(6,7-Dimethoxy-4-quinazolinyl)oxy]-2-nitrophenyl}-N′-[4-(N-benzyl)piperidinyl]urea]: the concentration for half-maximal inhibition (IC50) worked out at 263 nM at c-kit and 18 nM on PDGF-Ra.

Consider `COc1cc(Oc2ccnc3cc(OC)c(OC)cc23)ccc1NC(=O)NC1CCN(Cc2ccccc2)CC1` [Example 607, N-{4-[(6,7-Dimethoxy-4-quinolyl)oxy]-2-methoxyphenyl}-N′-[4-(N-benzyl)piperidinyl]urea], for which the concentration for half-maximal inhibition (IC50) amounted to 554 nM on c-kit and 29 nM at PDGF-Ra.

As for `COc1cc2nccc(Oc3ccc(NC(=O)NN4CCCCCC4)cc3)c2cc1OC` [Example 608, N-{4-[(6,7-Dimethoxy-4-quinolyl)oxy]phenyl}-N′-(1-homopiperidinyl)urea], the values for the IC50 at c-kit and on PDGF-Ra were 201 nM and under 10 nM, respectively.

With `COc1cc2nccc(Oc3cc(C)c(NC(=O)NCCN4CCOCC4)cc3C)c2cc1OC` [Example 616, N-{4-[(6,7-Dimethoxy-4-quinolyl)oxy]-2,5-dimethylphenyl}-N′-(2-morpholinoethyl)urea], the IC50 on c-kit came to 224 nM; at PDGF-Ra, 36 nM.

`COc1cc2nccc(Oc3ccc(NC(=O)NCCN4CCOCC4)c(C)c3C)c2cc1OC` [Example 617, N-{4-[(6,7-Dimethoxy-4-quinolyl)oxy]-2,3-dimethylphenyl}-N′-(2-morpholinoethyl)urea]: the concentration for half-maximal inhibition (IC50) at c-kit is 172 nM; at PDGF-Ra, under 10 nM.

`COc1cc2nccc(Oc3ccc(NC(=O)NCCN4CCCC4)cc3)c2cc1OC` [Example 618, N-{4-[(6,7-Dimethoxy-4-quinolyl)oxy]phenyl}-N′-(2-tetrahydro-1H-1-pyrrolylethyl)urea]: the half-inhibitory concentration (IC50) at c-kit was 948 nM; at PDGF-Ra, under 10 nM.

Turning to `COc1cc2nccc(Oc3cc(C)c(NC(=O)NCCN4CCCC4)cc3C)c2cc1OC` [Example 619, N-{4-[(6,7-Dimethoxy-4-quinolyl)oxy]-2,5-dimethylphenyl}-N′-(2-tetrahydro-1H-1-pyrrolylethyl)urea], on c-kit, the inhibition at 1 µM was 44%. For the same compound, at PDGF-Ra, the IC50 is over 100 nM and the inhibition at 0.1 µM stood at 49%.

As to `COc1cc2nccc(Oc3ccc(NC(=O)NCCN4CCCC4)c(C)c3C)c2cc1OC` [Example 620, N-{4-[(6,7-Dimethoxy-4-quinolyl)oxy]-2,3-dimethylphenyl}-N′-(2-tetrahydro-1H-1-pyrrolylethyl)urea], the 50% inhibitory concentration (IC50) at c-kit is 519 nM; at PDGF-Ra, under 10 nM.

For `CCN(CC)CCNC(=O)Nc1cc(C)c(Oc2ccnc3cc(OC)c(OC)cc23)cc1C` [Example 623, N-[2-(Diethylamino)ethyl]-N′-{4-[(6,7-dimethoxy-4-quinolyl)oxy]-2,5-dimethylphenyl}urea], the IC50 on c-kit was 632 nM; on PDGF-Ra, 90 nM.

With `CCN(CC)CCNC(=O)Nc1ccc(Oc2ccnc3cc(OC)c(OC)cc23)c(C)c1C` [Example 624, N-[2-(Diethylamino)ethyl]-N′-{4-[(6,7-dimethoxy-4-quinolyl)oxy]-2,3-dimethylphenyl}urea], the half-maximal inhibitory concentration (IC50) at c-kit was determined as 436 nM; on PDGF-Ra, 34 nM.

In the case of `COc1cc2nccc(Oc3cc(C)c(NC(=O)NCCN(C)C)cc3C)c2cc1OC` [Example 625, N-{4-[(6,7-Dimethoxy-4-quinolyl)oxy]-2,5-dimethylphenyl}-N′-[2-(dimethylamino)ethyl]urea], the 50% inhibitory concentration (IC50) on c-kit is 596 nM; at PDGF-Ra it was over 100 nM. Moreover, the inhibition at 0.1 µM at PDGF-Ra is 31%.

For `COc1cc2nccc(Oc3ccc(NC(=O)NCCN(C)C)c(C)c3C)c2cc1OC` [Example 626, N-{4-[(6,7-Dimethoxy-4-quinolyl)oxy]-2,3-dimethylphenyl}-N′-[2-(dimethylamino)ethyl]urea], the figures for the concentration for half-maximal inhibition (IC50) at c-kit and on PDGF-Ra were 339 nM and 49 nM, respectively.

In the case of `COc1cc2ncnc(Oc3ccc(NC(=O)NCCN(C)C)cc3)c2cc1OC` [Example 627, N-{4-[(6,7-Dimethoxy-4-quinazolinyl)oxy]phenyl}-N′-[2-(dimethylamino)ethyl]urea], the IC50 on c-kit is 774 nM; at PDGF-Ra, 65 nM.

For `COc1cc2nccc(Oc3ccc(NC(=O)NCCN4CCOCC4)cc3)c2cc1OC` [Example 628, N-{4-[(6,7-Dimethoxy-4-quinolyl)oxy]phenyl}-N′-(2-morpholinoethyl)urea], the half-maximal inhibitory concentration (IC50) on c-kit was 81 nM; at PDGF-Ra, under 10 nM.

On to `COc1cc2ncnc(Oc3ccc(NC(=O)NCCN4CCOCC4)cc3)c2cc1OC` [Example 629, N-{4-[(6,7-Dimethoxy-4-quinazolinyl)oxy]phenyl}-N′-(2-morpholinoethyl)urea], for which the half-inhibitory concentration (IC50) on c-kit is 481 nM; on PDGF-Ra, under 10 nM.

Regarding `CCN(CC)CCNC(=O)Nc1ccc(Oc2ncnc3cc(OC)c(OC)cc23)cc1OC` [Example 630, N-[2-(Diethylamino)ethyl]-N′-{4-[(6,7-dimethoxy-4-quinazolinyl)oxy]-2-methoxyphenyl}urea], the inhibition at 1 µM on c-kit is 23%. For the same compound, the IC50 at PDGF-Ra came out at 36 nM.

Consider `COc1cc(Oc2ncnc3cc(OC)c(OC)cc23)ccc1NC(=O)NCCN1CCOCC1` [Example 631, N-{4-[(6,7-Dimethoxy-4-quinazolinyl)oxy]-2-methoxyphenyl}-N′-(2-morpholinoethyl)urea], for which the IC50 turned out to be 186 nM on c-kit and 39 nM at PDGF-Ra.

For `COc1cc(Oc2ncnc3cc(OC)c(OC)cc23)ccc1NC(=O)NCCN1CCCC1` [Example 632, N-{4-[(6,7-Dimethoxy-4-quinazolinyl)oxy]-2-methoxyphenyl}-N′-(2-tetrahydro-1H-1-pyrrolylethyl)urea], the IC50 at c-kit amounted to 223 nM; at PDGF-Ra, 36 nM.
